Results reported in US20240182460A1, “ALLOSTERIC CHROMENONE INHIBITORS OF PHOSPHOINOSITIDE 3-KINASE (PI3K) FOR THE TREATMENT OF DISEASE” (PETRA PHARMA CORPORATION, priority 2022, published 2024).

target: PI3Kα E545K (Homo sapiens, UniProt P42336, E545K); assay: PI3Kα E545K mutant in vitro cell based assay, MDA-MB-361 cells; set-up: MDA-MB-361 (ATCC-HTB-27) cell line (PI3Kα E545K); host or cells: MDA-MB-361; conditions: MDA-MB-361 cell line, 0% FBS, no insulin, 3 hours treatment
Text: PI3K-Alpha Kinase (PI3Kα) Activity: Wild-Type PI3Kα, H1047R Mutant PI3Kα, and E545K Mutant PI3Kα In Vitro Cell Based Assays and Determination of IC50 Values for Inhibitors
The MDA-MB-453 (ATCC-HTB-131) cell line (PI3Kα H1047R) and MCF-7 (ATCC-HTB-22) cell line (PI3Kα E545K), MDA-MB-361 (ATCC-HTB-27) cell line (PI3Kα E545K), and SKBR3 (ATCC-HTB-30) cell line (wild type PI3Kα) were obtained from the American Type Culture Collection (Manassas, VA). MDA-MB-453 cells were maintained in Dulbecco's Modified Eagle Media (DMEM, Gibco 12430) supplemented with 10% Fetal Bovine Serum, heat inactivated (FBS HI, Gibco 10082), 1× non-essential amino acids (NEAA, Gibco 11140), 1 mM sodium pyruvate (Gibco 11360) and 1× Anti-Anti (Gibco 15240). MCF-7 cells were maintained in Minimum Essential Media (MEM) (Gibco 11095) supplemented with 10% Fetal Bovine Serum, heat inactivated (FBS HI, Gibco 10082), 1× non-essential amino acids (NEAA, Gibco 11140), 1 mM sodium pyruvate (Gibco 11360), 1× Anti-Anti (Gibco 15240) and 10 μg/mL human insulin (Sigma I 9278). MDA-MB-361 cells were maintained in Dulbecco's Modified Eagle Media (DMEM, Gibco 12430) supplemented with 20% Fetal Bovine Serum, heat inactivated (FBS HI, Gibco 10082), 1× non-essential amino acids (NEAA, Gibco 11140), 1 mM sodium pyruvate (Gibco 11360) and 1× Anti-Anti (Gibco 15240). SKBR3 cells were maintained in McCoy's 5A (Gibco 16600) supplemented with 10% Fetal Bovine Serum, heat inactivated (FBS HI, Gibco 10082), and 1× Anti-Anti (Gibco 15240). Cultures were maintained in a humidified incubator at 37° C. under 5% CO2/95% air.
For compound testing in 0% FBS, MDA-MB-453, MCF-7 and SKBR3 cells were seeded at a density of 1.5×10^4, 1.0×10^4, and 1.0×10^4 cells, respectively, per well in white 384-well plates in 20 μl of Minimum Essential Media (MEM) assay media with 1×NEAA, 1 mM sodium pyruvate, and 1 μg/mL human insulin (Sigma 19278) (Assay Medium); while MDA-MB-361 cells were seeded at a density of 1.5×10^4 per well in white 384-well plates in 20 μl Assay Medium without insulin. After plating, cells were allowed to attach overnight. Compounds dissolved in 10 mM stock solutions in DMSO were serially diluted 1:3 in DMSO to generate a 10-point dilution series and plated using an acoustic liquid handler system (Echo 550 Series Liquid Handler, Labcyte). A 5× intermediate compound dilution plate in MEM with 1×NEAA and 1 mM sodium pyruvate (150 μM starting compound concentration in 1.5% DMSO) was then prepared. Five μl of the intermediate serially diluted compounds were added to the cell plate to final concentrations ranging from […] in 0.3% DMSO. 0.3% DMSO alone was used to establish the maximum (MAX) signal and GDC-0032 at a final concentration of 1 μM was used as a reference compound for the minimum (MIN) signal. After 3 hours treatment, the medium was removed, and the cells were lysed in 10 μL of 1× SureFire Lysis buffer with shaking for 10 minutes at room temperature. The Acceptor Mix (Reaction Buffer 1+Reaction Buffer 2+Activation Buffer+SureFire Ultra Acceptor Beads) was prepared by diluting Activation buffer 25-fold in combined Reaction Buffer 1 and Reaction Buffer 2.
The Acceptor beads were diluted 50-fold in the combined Reaction Buffers. Five μL of Acceptor Mix was added to each well, the plate was sealed and covered with foil and incubated for 1 hour at room temperature. The Donor Mix (dilution buffer+SureFire Ultra Donor Beads) was prepared by diluting Donor Beads 50-fold in dilution buffer. Five μL of the Donor Mix was added to each well and the plate sealed and covered with foil and incubated for 1-2 hours at room temperature in the dark. The plates were read on a Neo2 plate reader instrument from Biotek using standard AlphaLisa settings.
Compounds were tested in duplicate and the % inhibition at each compound concentration was used to generate two dose response curves. One IC50 was generated using average % inhibition at each compound concentration. […]

Chain of PI3Kα E545K (P42336 whole entry E545K): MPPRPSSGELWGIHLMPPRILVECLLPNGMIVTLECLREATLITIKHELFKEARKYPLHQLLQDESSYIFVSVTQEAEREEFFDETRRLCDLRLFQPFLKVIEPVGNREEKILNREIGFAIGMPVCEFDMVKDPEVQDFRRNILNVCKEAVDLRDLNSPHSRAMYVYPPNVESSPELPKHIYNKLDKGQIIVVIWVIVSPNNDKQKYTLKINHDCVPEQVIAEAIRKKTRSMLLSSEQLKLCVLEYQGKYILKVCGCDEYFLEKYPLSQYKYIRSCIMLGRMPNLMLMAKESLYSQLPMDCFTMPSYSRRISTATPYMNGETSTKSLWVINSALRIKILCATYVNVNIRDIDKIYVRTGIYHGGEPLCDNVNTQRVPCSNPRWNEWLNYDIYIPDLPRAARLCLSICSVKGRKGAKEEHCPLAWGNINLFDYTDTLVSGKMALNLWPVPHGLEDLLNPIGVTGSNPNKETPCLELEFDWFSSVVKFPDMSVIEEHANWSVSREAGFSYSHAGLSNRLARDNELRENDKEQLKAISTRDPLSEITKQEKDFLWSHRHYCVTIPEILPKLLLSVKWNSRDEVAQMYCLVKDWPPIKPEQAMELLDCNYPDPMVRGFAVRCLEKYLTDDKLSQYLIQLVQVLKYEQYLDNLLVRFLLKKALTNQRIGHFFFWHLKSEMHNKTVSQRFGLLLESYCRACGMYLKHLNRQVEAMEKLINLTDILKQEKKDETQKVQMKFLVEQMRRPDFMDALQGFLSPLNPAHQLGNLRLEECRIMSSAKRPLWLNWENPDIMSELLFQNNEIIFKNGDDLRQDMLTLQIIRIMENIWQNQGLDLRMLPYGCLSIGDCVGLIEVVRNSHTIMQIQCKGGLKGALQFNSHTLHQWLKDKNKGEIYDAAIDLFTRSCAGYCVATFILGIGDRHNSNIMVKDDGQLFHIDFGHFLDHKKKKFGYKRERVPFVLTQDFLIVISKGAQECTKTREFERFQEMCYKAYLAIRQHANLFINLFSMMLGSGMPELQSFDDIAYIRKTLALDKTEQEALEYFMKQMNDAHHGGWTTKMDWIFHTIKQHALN
Chain of PI3Kα E545K (P27986 whole entry partner): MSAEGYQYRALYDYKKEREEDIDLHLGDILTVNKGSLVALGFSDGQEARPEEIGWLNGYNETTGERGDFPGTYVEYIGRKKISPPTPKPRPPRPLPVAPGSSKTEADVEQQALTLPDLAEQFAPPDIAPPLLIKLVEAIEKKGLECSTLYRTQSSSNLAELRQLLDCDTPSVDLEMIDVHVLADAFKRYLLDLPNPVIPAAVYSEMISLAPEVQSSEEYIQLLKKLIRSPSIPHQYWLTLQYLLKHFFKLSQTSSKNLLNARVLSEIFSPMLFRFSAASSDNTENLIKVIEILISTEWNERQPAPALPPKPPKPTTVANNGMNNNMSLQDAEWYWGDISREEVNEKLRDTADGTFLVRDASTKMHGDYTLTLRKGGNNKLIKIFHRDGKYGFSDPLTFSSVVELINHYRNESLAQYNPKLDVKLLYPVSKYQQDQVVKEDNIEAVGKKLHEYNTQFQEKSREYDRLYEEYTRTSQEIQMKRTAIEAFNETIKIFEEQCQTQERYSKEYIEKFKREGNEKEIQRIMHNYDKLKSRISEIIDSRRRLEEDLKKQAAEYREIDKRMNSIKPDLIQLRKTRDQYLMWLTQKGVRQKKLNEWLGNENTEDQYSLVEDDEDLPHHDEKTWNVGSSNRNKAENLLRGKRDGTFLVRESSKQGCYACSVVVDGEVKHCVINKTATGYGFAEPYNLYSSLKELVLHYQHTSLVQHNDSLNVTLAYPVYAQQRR

IC50, < 500 nM:
Cc1cc([C@@H](C)Oc2ccc(Cl)nc2S(N)(=O)=O)c2oc(-c3cnn(C[C@]45C[C@H](CO4)C5)c3)c(C)c(=O)c2c1 [Example 118C, 6-Chloro-3-[(1R)-1-[3,6-dimethyl-2-[1-(2-oxabicyclo[2.1.1]hexan-1-ylmethyl)pyrazol-4-yl]-4-oxo-chromen-8-yl]ethoxy]pyridine-2-sulfonamide]
Cc1cc([C@@H](C)Oc2ccc(Cl)nc2C(N)=O)c2oc(-c3ccc4occc4c3)c(C)c(=O)c2c1 [Example 61C, 3-[(1R)-1-[2-(Benzofuran-5-yl)-3,6-dimethyl-4-oxo-chromen-8-yl]ethoxy]-6-chloro-pyridine-2-carboxamide]
Cc1cc([C@@H](C)Oc2ccc(C)nc2S(N)(=O)=O)c2oc(-c3ccccc3)c(C)c(=O)c2c1 [Example 122C, 3-[(1R)-1-(3,6-Dimethyl-4-oxo-2-phenyl-chromen-8-yl)ethoxy]-6-methyl-pyridine-2-sulfonamide]
Cc1cc([C@@H](C)Oc2ccc(Cl)cc2S(N)(=O)=O)c2oc(-c3cnc4ccoc4c3)c(C)c(=O)c2c1 [Example 100C, 5-Chloro-2-[(1R)-1-(2-furo[3,2-b]pyridin-6-yl-3,6-dimethyl-4-oxo-chromen-8-yl)ethoxy]benzenesulfonamide]
Cc1cc([C@@H](C)Oc2ccc(Cl)nc2C(N)=O)c2oc(-c3ccc4cc[nH]c(=O)c4c3)c(C)c(=O)c2c1 [Example 120A, 6-Chloro-3-[(1R)-1-[3,6-dimethyl-4-oxo-2-(1-oxo-2H-isoquinolin-7-yl)chromen-8-yl]ethoxy]pyridine-2-carboxamide]
Cc1cc([C@@H](C)Oc2ccc(Cl)nc2C(N)=O)c2oc(-c3ccc4nn([C@H]5C[C@H](O)C5)cc4c3)c(C)c(=O)c2c1 [Example 134C, 6-Chloro-3-[(1R)-1-[2-[2-(3-hydroxycyclobutyl)indazol-5-yl]-3,6-dimethyl-4-oxo-chromen-8-yl]ethoxy]pyridine-2-carboxamide]
Cc1cc([C@@H](C)Oc2ccc(Cl)nc2C(N)=O)c2oc(C3CC3)c(C)c(=O)c2c1 [Example 63A, 6-Chloro-3-[(1R)-1-(2-cyclopropyl-3,6-dimethyl-4-oxo-chromen-8-yl)ethoxy]pyridine-2-carboxamide]
Cc1cc([C@@H](C)Oc2ccc(Cl)nc2C(=O)NOCC2CC2)c2oc(-c3ccc4nn(C)cc4c3)c(C)c(=O)c2c1 [Example 28A, 6-Chloro-N-(cyclopropylmethoxy)-3-[(1R)-1-[3,6-dimethyl-2-(2-methylindazol-5-yl)-4-oxo-chromen-8-yl]ethoxy]pyridine-2-carboxamide]
Cc1cc([C@@H](C)Oc2ccc(Cl)nc2S(N)(=O)=O)c2oc(-c3cnn(CC4(C#N)CC4)c3)c(C)c(=O)c2c1 [Example 124C, 6-Chloro-3-[(1R)-1-[2-[1-[(1-cyanocyclopropyl)methyl]pyrazol-4-yl]-3,6-dimethyl-4-oxo-chromen-8-yl]ethoxy]pyridine-2-sulfonamide]
Cc1cc([C@@H](C)Oc2ccc(Cl)nc2S(N)(=O)=O)c2oc(-c3cnn(C)c3)c(C)c(=O)c2c1 [Example 14A, 6-Chloro-3-[(1R)-1-[3,6-dimethyl-2-(1-methylpyrazol-4-yl)-4-oxo-chromen-8-yl]ethoxy]pyridine-2-sulfonamide]
Cc1cc([C@@H](C)Oc2ccc(F)cc2S(N)(=O)=O)c2oc(-c3cnc4ccoc4c3)c(C)c(=O)c2c1 [Example 106C, 5-Fluoro-2-[(1R)-1-(2-furo[3,2-b]pyridin-6-yl-3,6-dimethyl-4-oxo-chromen-8-yl)ethoxy]benzenesulfonamide]
Cc1cc([C@@H](C)Oc2ccc(Cl)nc2S(N)(=O)=O)c2oc(-c3cnn(C[C@H](C)O)c3)c(C)c(=O)c2c1 [Example 7B, 6-Chloro-3-[(1R)-1-[2-[1-[(2S)-2-hydroxypropyl]pyrazol-4-yl]-3,6-dimethyl-4-oxo-chromen-8-yl]ethoxy]pyridine-2-sulfonamide]
CCc1nc2ccc(-c3oc4c([C@@H](C)Oc5ccc(Cl)nc5C(N)=O)cc(C)cc4c(=O)c3C)cc2o1 [Example 84C, 6-Chloro-3-[(1R)-1-[2-(2-ethyl-1,3-benzoxazol-6-yl)-3,6-dimethyl-4-oxo-chromen-8-yl]ethoxy]pyridine-2-carboxamide]
Cc1cc([C@@H](C)Oc2ccc(Cl)nc2C(N)=O)c2oc(-c3ccc4c(c3)OC(F)(F)O4)c(C)c(=O)c2c1 [Example 60A, 6-Chloro-3-[(1R)-1-[2-(2,2-difluoro-1,3-benzodioxol-5-yl)-3,6-dimethyl-4-oxo-chromen-8-yl]ethoxy]pyridine-2-carboxamide]
Cc1cc([C@@H](C)Oc2ccc(Cl)nc2C(N)=O)c2oc(-c3cnn(C4CC4)c3)c(C)c(=O)c2c1 [Example 51A, 6-Chloro-3-[(1R)-1-[2-(1-cyclopropylpyrazol-4-yl)-3,6-dimethyl-4-oxo-chromen-8-yl]ethoxy]pyridine-2-carboxamide]
